Data as given in patent publication US20140155415A1, “BENZ[…] BENZODIOXINE COMPOUNDS THAT INTERACT WITH G[…] FOR THE TREATMENT OF DIABETES” (priority 2011, published 2014).

Molecular target: T1, GK-GKRP (glucokinase / glucokinase regulatory protein) (Homo sapiens, UniProt Q14397)
T1 sequence (Q14397 1-625): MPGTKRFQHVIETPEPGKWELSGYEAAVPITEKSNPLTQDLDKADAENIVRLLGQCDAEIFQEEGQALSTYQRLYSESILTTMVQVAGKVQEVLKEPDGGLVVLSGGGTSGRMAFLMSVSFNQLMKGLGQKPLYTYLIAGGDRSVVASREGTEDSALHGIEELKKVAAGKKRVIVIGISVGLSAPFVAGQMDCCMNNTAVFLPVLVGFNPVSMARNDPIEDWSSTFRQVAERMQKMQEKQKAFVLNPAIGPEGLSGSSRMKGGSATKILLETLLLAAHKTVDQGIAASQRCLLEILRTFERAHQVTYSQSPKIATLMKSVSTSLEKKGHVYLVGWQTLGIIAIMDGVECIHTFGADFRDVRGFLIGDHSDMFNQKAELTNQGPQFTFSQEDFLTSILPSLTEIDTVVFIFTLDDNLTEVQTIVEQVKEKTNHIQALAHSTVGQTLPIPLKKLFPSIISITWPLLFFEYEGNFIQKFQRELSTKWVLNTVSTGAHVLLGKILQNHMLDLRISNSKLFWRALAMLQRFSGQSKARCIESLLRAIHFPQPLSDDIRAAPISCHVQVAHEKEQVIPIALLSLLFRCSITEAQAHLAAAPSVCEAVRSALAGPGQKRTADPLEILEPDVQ
Assay: GKRP LC MS/MS Biochemical Assay (LCMS/MS)
Conditions: formation of 13C-glucose-6-phosphate from 13C-glucose by LC MS/MS, human His-hepatic GK, fructose-6-phosphate
Protocol: GKRP LC MS/MS Biochemical Assay (LCMS/MS)
This assay is used to directly measure the formation of ^13C-glucose-6-phosphate from ^13C-glucose by LC MS/MS. Begin by preparing the following solutions: Compound Buffer (CB): 50 mM Tris, pH 7.5/4 mM MgCl2/6% DMSO/fresh 10 mM DTT from 1M frozen stock. Enzyme Buffer (EB): 50 mM Tris, pH 7.5/4 mM MgCl2/6% DMSO/fresh 0.1% BSA/fresh 0.01% Brij-35 (10% BSA and 1% Brij-35 stock). GK (Glucokinase) Working Stock (5×): Dilute human His-hepatic GK to 30 nM in EB buffer. […] Seal the plate and incubate for 30 minutes at room temperature while mixing. After 30 minutes add 10 μl of GK Working Stock (5×). Re-seal the plate and incubate for another 30 minutes at room temperature while mixing. After the second 30 minutes, stop the reaction by the addition of 50 μl of 100% acetonitrile, seal, and mix for 5-10 minutes. Run 10 μl of this sample through the LC MS/MS (API 3200, Applied Biosystems, Carlsbad, Calif.). […]
(§1) In the Examples, the assays are referred to as “LCMS/MS” or “Binding.”

EC50 [nM]	Structure (SMILES)
1800	O=S(=O)(NC(c1cccc(F)c1)c1cc2ccccc2o1)c1ccc2c(c1)OCCCO2 (racemic) [Example 24, N-(1-benzofuran-2-yl(3-fluorophenyl)methyl)-3,4-dihydro-2H-1,5-benzodioxepine-7-sulfonamide]
1400	O=S(=O)(NC(c1ccsc1)c1cc2ccccc2o1)c1ccc2c(c1)OCCCO2 (racemic) [Example 32, N-(1-benzofuran-2-yl(3-thiophenyl)methyl)-3,4-dihydro-2H-1,5-benzodioxepine-7-sulfonamide]
> 50000	Cc1ccccc1[C@H](NS(=O)(=O)c1ccc2c(c1)OCCCO2)c1cc2ccccc2o1 (single isomer, unassigned) [Example 2 Peak #1]
43	Cc1ccccc1[C@@H](NS(=O)(=O)c1ccc2c(c1)OCCCO2)c1cc2ccccc2o1 (single isomer, unassigned) [Example 2 Peak #2]
3200	O=S(=O)(NC(c1cc2ccccc2o1)c1ccccc1CCO)c1ccc2c(c1)OCCCO2 (racemic) [Example 16, N-(1-benzofuran-2-yl(2-(2-hydroxyethyl)phenyl)methyl)-3,4-dihydro-2H-1,5-benzodioxepine-7-sulfonamide]

Molecular target: T2, GK-GKRP (interaction between glucokinase and glucokinase regulatory protein) (Homo sapiens, UniProt Q14397)
T2 construct: made in house; host or cells: GKRP: baculovirus system
T2 sequence (Q14397 1-625): T1 sequence (Q14397 1-625)
Assay: GK-GKRP Binding Assay (Binding), AlphaScreen
Conditions: not given
Protocol: GK-GKRP Binding Assay Protocol (Binding)
This assay is used to directly measure the interaction between glucokinase (GK) and glucokinase regulatory protein (GKRP). Begin by preparing the following solutions. Assay Buffer: 20 mM Tris, pH 7.5/0.05% BSA/1 mM DTT/1 μM sorbitol-6-phosphate. […] Combine the following reagents in a white 96-well half area plate. Pipette 14 μl of the diluted avi-tagged GKRP into each well. Add 1 μl of compound to be tested and incubate at room temperature for 20 minutes. After 20 minutes, add 5 μl of assay buffer containing 6 nM GK-fluorescein. […] Incubate in a dark room for 2 hours at room temperature. After 2 hours read the plate using an Envision plate reader (Perkin Elmer, Waltham Mass.).
Recombinant human glucokinase (hepatic) was purified and formulated in 50 mM Tris (pH 7.5), 150 mM NaCl and 20 mM glucose previous to labeling with fluorescein. […] Unreacted dye was removed by extensive dialysis into the final formulation buffer: 25 mM Tris (pH 7.2), 150 mM NaCl, 10% glycerol and 2 mM DTT. The human glucokinase regulatory protein construct was designed with a C-terminal avitag and was expressed in a baculovirus system. Purified GKRP was incubated overnight with recombinant biotin ligase in the presence of D-biotin, ATP and MgCl2. GKRP was isolated from reaction components by chromatography on a Superdex 200 size exclusion column into: 50 mM HEPES, 150 mM NaCl and 5 mM DTT. […] Proteins were quantitated according to their calculated molar extinction coefficients at A280 and were stored at −80° C.
as §1

IC50 [nM]	Structure (SMILES)
2700	COc1ccc(S(=O)(=O)NC(c2cc3ccccc3s2)c2ccccc2SC)cc1OC (racemic) [Example 74]
97	O=S(=O)(N[C@@H](c1cc2ccccc2s1)c1ccccc1Cl)c1ccc2c(c1)OCC(O)CO2 (mixture of isomers) [Example 77, N—((R)-1-Benzothiophen-2-yl(2-chlorophenyl)methyl)-3-hydroxy-3,4-dihydro-2H-1,5-benzodioxepine-7-sulfonamide]

Same assay, conditions: avi-tagged GKRP, GK-fluorescein, AlphaScreen beads, 1 μM sorbitol-6-phosphate; read-out: GK-GKRP IC50 (Binding)

Structure (SMILES)	IC50 [nM]
COc1cccnc1C(NS(=O)(=O)c1ccc2c(c1)OCCCO2)c1nc2cccnc2s1 (racemic) [Example 69, N-((3-methoxy-2-pyridinyl)([1,3]thiazolo[5,4-b]pyridin-2-yl)methyl)-3,4-dihydro-2H-1,5-benzodioxepine-7-sulfonamide]	1500
Cc1cccnc1[C@H](NS(=O)(=O)c1ccc2c(c1)OCCCO2)c1cc2ccccc2o1 (single isomer, unassigned) [Example 26 Peak #1]	> 33000
O=S(=O)(NC(c1ccccc1)c1cc2ccnc(Cl)c2s1)c1ccc2c(c1)OCCCO2 (racemic) [Example 80, N-((7-Chlorothieno[2,3-c]pyridin-2-yl)(phenyl)methyl)-3,4-dihydro-2H-1,5-benzodioxepine-7-sulfonamide]	1100
COc1ccccc1[C@H](NS(=O)(=O)c1ccc2c(c1)OCCCO2)c1nc2cccnc2s1 (single isomer, unassigned) [Example 67 Peak #1]	2800
Nc1cc(C(NS(=O)(=O)c2ccc3c(c2)OCCCO3)c2cc3ccccc3o2)ccn1 (stereo not drawn) [Example 87, N-((2-Amino-4-pyridinyl)(1-benzofuran-2-yl)methyl)-3,4-dihydro-2H-1,5-benzodioxepine-7-sulfonamide]	4880
O=S(=O)(N[C@H](c1nc2cccnc2s1)c1ccccc1Cl)c1ccc2c(c1)OCCCO2 (single isomer, unassigned) [Example 68 Peak #1]	2000

Results, then the molecule that gave them:

IC50 [nM]	Structure (SMILES)
907	COc1ccc(S(=O)(=O)N[C@@H](c2cc3cccc(-c4cc(C(O)(C(F)(F)F)C(F)(F)F)ccn4)c3s2)c2ccccc2Cl)cc1OC [Example 82, N—((R)-(2-Chlorophenyl)(7-(4-(2,2,2-trifluoro-1-hydroxy-1-(trifluoromethyl)ethyl)-2-pyridinyl)-1-benzothiophen-2-yl)methyl)-3,4-dimethoxybenzenesulfonamide]
900	CSc1ccccc1[C@H](NS(=O)(=O)c1ccc2c(c1)OCCCO2)c1nc2cccnc2s1 (single isomer, unassigned) [Example 65 Peak #1]
790	O=S(=O)(N[C@@H](c1ccccc1)c1cc2cccc(-c3ccccn3)c2s1)c1ccc2c(c1)OCCCO2 (single isomer, unassigned) [Example 71 Peak #1]
620	O=S(=O)(N[C@@H](c1cc2ccccc2s1)c1ccccc1Cl)c1ccc2c(c1)OCC(F)(F)CO2 [Example 76, N—((R)-1-Benzothiophen-2-yl(2-chlorophenyl)methyl)-3,3-difluoro-3,4-dihydro-2H-1,5-benzodioxepine-7-sulfonamide]
276	COc1ccc(S(=O)(=O)N[C@@H](c2cc3cccc(-c4cc([C@@](C)(O)C(F)(F)F)ccn4)c3s2)c2ccccc2Cl)cc1OC [Example 84, N—((R)-(2-Chlorophenyl)(7-(4-((1R)-2,2,2-trifluoro-1-hydroxy-1-methylethyl)-2-pyridinyl)-1-benzothiophen-2-yl)methyl)-3,4-dimethoxybenzenesulfonamide]
98	Nc1cccc(C(NS(=O)(=O)c2ccc3c(c2)OCCCO3)c2cc3ccccc3o2)n1 (racemic) [Example 79, N-((6-amino-2-pyridinyl)(1-benzofuran-2-yl)methyl)-3,4-dihydro-2H-1,5-benzodioxepine-7-sulfonamide]
87	O=S(=O)(N[C@@H](c1cc2cccc(-c3cc(C(O)(C(F)(F)F)C(F)(F)F)ccn3)c2s1)c1ccccc1Cl)c1ccc2c(c1)OCCCO2 [Example 81, N—((R)-(2-Chlorophenyl)(7-(4-(2,2,2-trifluoro-1-hydroxy-1-(trifluoromethyl)ethyl)-2-pyridinyl)-1-benzothiophen-2-yl)methyl)-3,4-dihydro-2H-1,5-benzodioxepine-7-sulfonamide]
72	COc1ccc(S(=O)(=O)N[C@@H](c2cc3cccc(-c4cc([C@](C)(O)C(F)(F)F)ccn4)c3s2)c2ccccc2Cl)cc1OC [Example 86, N—((R)-(2-Chlorophenyl)(7-(4-((1S)-2,2,2-trifluoro-1-hydroxy-1-methylethyl)-2-pyridinyl)-1-benzothiophen-2-yl)methyl)-3,4-dimethoxybenzenesulfonamide]
47	O=S(=O)(N[C@@H](c1cc2ccccc2s1)c1ccccc1Cl)c1ccc2c(c1)OCC(F)CO2 (mixture of isomers) [Example 78, N—((R)-1-Benzothiophen-2-yl(2-chlorophenyl)methyl)-3-fluoro-3,4-dihydro-2H-1,5-benzodioxepine-7-sulfonamide]
38	C[C@@](O)(c1ccnc(-c2cccc3cc([C@H](NS(=O)(=O)c4ccc5c(c4)OCCCO5)c4ccccc4Cl)sc23)c1)C(F)(F)F [Example 83, N—((R)-(2-Chlorophenyl)(7-(4-((1R)-2,2,2-trifluoro-1-hydroxy-1-methylethyl)-2-pyridinyl)-1-benzothiophen-2-yl)methyl)-3,4-dihydro-2H-1,5-benzodioxepine-7-sulfonamide]
23	C[C@](O)(c1ccnc(-c2cccc3cc([C@H](NS(=O)(=O)c4ccc5c(c4)OCCCO5)c4ccccc4Cl)sc23)c1)C(F)(F)F [Example 85, N—((R)-(2-Chlorophenyl)(7-(4-((1S)-2,2,2-trifluoro-1-hydroxy-1-methylethyl)-2-pyridinyl)-1-benzothiophen-2-yl)methyl)-3,4-dihydro-2H-1,5-benzodioxepine-7-sulfonamide]
